In the supplement of paper PMC11061612:

Experiments:
Experiment in all cases: combination Emax (second highest fraction inhibited in the dose matrix, 72 h); higher = more inhibition; extreme values may be limits of the assay
[1] = test system: A2780 (Ovarian Carcinoma)
In short: (§1)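 Cell lines grown in DMEM/F12 or RPMI with 10% FBS were plated in 1536-well plates and held 24 hours at 37°C, 5% CO2 before 72 hours of exposure to two-drug dose matrices, with DMSO typically at 0.2%. CellTiter-Glo 2.0 luminescence gave viability, which was converted to inhibition. Vehicle wells were set to 0 and blank wells to 1. Combination Emax is the second-highest inhibition in the matrix, and Bliss excess is the observed combination effect minus the expected EA + EB − EA·EB, where EA and EB are the single-agent effects.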

[2] = test system: EPLC-272H (Other Solid Carcinomas)
In short: as §1

[3] = test system: NCI-H1651 (Lung Adenocarcinoma)
In short: as §1

[4] = test system: MHH-ES-1 (Ewing's Sarcoma)
In short: as §1

[5] = test system: COLO-792 (Melanoma)
In short: as §1

[6] = test system: EB2 (Burkitt's Lymphoma)
In short: as §1

[7] = test system: CGTH-W-1 (Thyroid Gland Carcinoma)
In short: as §1

[8] = test system: Jurkat (T-Lymphoblastic Leukemia)
In short: as §1

[9] = test system: A253 (Head and Neck Carcinoma)
In short: as §1

[10] = test system: NCI-H441 (Lung Adenocarcinoma)
In short: as §1

[11] = test system: NCI-H2087 (Lung Adenocarcinoma)
In short: as §1

[12] = test system: GA-10 (Burkitt's Lymphoma)
In short: as §1

[13] = test system: JIMT-1 (Breast Carcinoma)
In short: as §1

[14] = test system: HCC1428 (Breast Carcinoma)
In short: as §1

[15] = test system: CESS (Acute Myeloid Leukemia)
In short: as §1

[16] = test system: RH-41 (Rhabdomyosarcoma)
In short: as §1

[17] = test system: IM-9 (Non-Cancerous)
In short: as §1

[18] = test system: UACC-812 (Breast Carcinoma)
In short: as §1

[19] = test system: GCT (Other Solid Carcinomas)
In short: as §1

[20] = test system: DU-4475 (Breast Carcinoma)
In short: as §1

Row | Compound | combination Emax [1] | combination Emax [2] | combination Emax [3] | combination Emax [4] | combination Emax [5] | combination Emax [6] | combination Emax [7] | combination Emax [8] | combination Emax [9] | combination Emax [10] | combination Emax [11] | combination Emax [12] | combination Emax [13] | combination Emax [14] | combination Emax [15] | combination Emax [16] | combination Emax [17] | combination Emax [18] | combination Emax [19] | combination Emax [20]
1 | CC1(C)CCC(CN2CCN(c3ccc(C(=O)NS(=O)(=O)c4ccc(NCC5CCOCC5)c([N+](=O)[O-])c4)c(Oc4cnc5[nH]ccc5c4)c3)CC2)=C(c2ccc(Cl)cc2)C1 [Venetoclax] + C=CCn1c(=O)c2cnc(Nc3ccc(N4CCN(C)CC4)cc3)nc2n1-c1cccc(C(C)(C)O)n1 [AZD1775] (first compound max 1 µM, partner max 1 µM) | 0.927 | 0.761 | 0.589 | 0.776 | 0.399 | 0.932 | 0.377 | 0.907 | 0.313 | 0.489 | 0.401 | 1 | 0.573 | 0.22 | 0.966 | 1 | 0.992 | 0.0382 | 0.431 | 1
2 | COc1nnc2ccc(N3CCC(c4ccc(OCCN5CCN(C)C(=O)[C@H]5C)cc4)CC3)nn12 [AZD5153] + C[C@@H]1COCCN1C2=NC(=NC(=C2)C3(CC3)[S@](=N)(=O)C)C4=C5C=CNC5=NC=C4 [AZD6738] (first compound max 1 µM, 7x7, partner max 10 µM) | 0.848 | 0.919 | 0.767 | 0.812 | 0.72 | 0.764 | 0.448 | 0.985 | 0.736 | 0.562 | 0.728 | 0.962 | 0.77 | 0.732 | 0.905 | 0.99 | 0.963 | 0.479 | 0.6 | 1
3 | COc1nnc2ccc(N3CCC(c4ccc(OCCN5CCN(C)C(=O)[C@H]5C)cc4)CC3)nn12 [AZD5153] + Cn1cnc2c(F)c(Nc3ccc(Br)cc3Cl)c(C(=O)NOCCO)cc21 [Selumetinib] (first compound max 1 µM, 7x7, partner max 10 µM) | 0.823 | 0.868 | 0.138 | 0.707 | 0.882 | 0.502 | 0.356 | 0.594 | 0.456 | 0.453 | 0.631 | 0.714 | 0.426 | 0.728 | 0.606 | 0.92 | 0.952 | 0.331 | 0.59 | 1
4 | COc1cccc(OCCCN)c1-c1cc(Nc2cnc(C#N)cn2)n[nH]1 [Prexasertib] + O=C(c1cc(Cc2n[nH]c(=O)c3ccccc23)ccc1F)N1CCN(C(=O)C2CC2)CC1 [Olaparib] (first compound max 1 µM, 7x7, partner max 10 µM) | 0.71 | 0.894 | 0.797 | 0.954 | 0.322 | 0.916 | 0.714 | 0.994 | 0.794 | 0.574 | 0.784 | 0.987 | 0.788 | 0.622 | 0.972 | 0.95 | 1 | 0.558 | 0.633 | 0.98
5 | CCN(CCO)CCCOc1ccc2c(Nc3cc(CC(=O)Nc4cccc(F)c4)[nH]n3)ncnc2c1 [AZD2811] + C[C@@H]1COCCN1C2=NC(=NC(=C2)C3(CC3)[S@](=N)(=O)C)C4=C5C=CNC5=NC=C4 [AZD6738] (first compound max 1 µM, 7x7, partner max 10 µM) | 0.815 | 0.849 | 0.56 | 0.685 | 0.418 | 0.746 | 0.35 | 0.865 | 0.756 | 0.407 | 0.662 | 0.978 | 0.677 | 0.172 | 0.893 | 0.706 | 0.981 | 0.323 | 0.242 | 0.944
6 | COc1nnc2ccc(N3CCC(c4ccc(OCCN5CCN(C)C(=O)[C@H]5C)cc4)CC3)nn12 [AZD5153] + CC1(C)CCC(CN2CCN(c3ccc(C(=O)NS(=O)(=O)c4ccc(NCC5CCOCC5)c([N+](=O)[O-])c4)c(Oc4cnc5[nH]ccc5c4)c3)CC2)=C(c2ccc(Cl)cc2)C1 [Venetoclax] (first compound max 1 µM, 7x7, partner max 1 µM) | 0.736 | 0.754 | 0.257 | 0.682 | 0.583 | 0.559 | 0.212 | 0.679 | 0.22 | 0.381 | 0.389 | 0.693 | 0.311 | 0.621 | 0.638 | 0.909 | 0.859 | 0.261 | 0.595 | 0.8
7 | Cc1c2c(nn1C)CSCc1cc(n(C)n1)CSc1cc(c3ccccc3c1)OCCCc1c(C(=O)O)n(C)c3c-2c(Cl)ccc13 [AZD5991] + Cn1cnc2c(F)c(Nc3ccc(Br)cc3Cl)c(C(=O)NOCCO)cc21 [Selumetinib] (first compound max 1 µM, 7x7, partner max 3 µM) | 0.538 | 0.94 | 0.218 | 0.672 | 1 | 0.212 | 0.181 | 0.927 | 0.944 | 0.405 | 0.588 | 0.751 | 0.284 | 0.977 | 0.289 | 1 | 0.848 | 0.579 | 0.427 | 1
8 | CC1(C)CCC(CN2CCN(c3ccc(C(=O)NS(=O)(=O)c4ccc(NCC5CCOCC5)c([N+](=O)[O-])c4)c(Oc4cnc5[nH]ccc5c4)c3)CC2)=C(c2ccc(Cl)cc2)C1 [Venetoclax] + C1CN(CCC1(C(=O)N[C@@H](CCO)C2=CC=C(C=C2)Cl)N)C3=NC=NC4=C3C=CN4 [Capivasertib] (first compound max 1 µM, 7x7, partner max 3 µM) | 0.61 | 0.562 | 0.159 | 0.323 | 0.381 | 0.795 | 0.215 | 0.639 | 0.463 | 0.326 | 0.123 | 0.584 | 0.188 | 0.119 | 0.467 | 0.945 | 0.632 | 0.238 | 0.426 | 0.246
9 | COc1nnc2ccc(N3CCC(c4ccc(OCCN5CCN(C)C(=O)[C@H]5C)cc4)CC3)nn12 [AZD5153] + CCN(CCO)CCCOc1ccc2c(Nc3cc(CC(=O)Nc4cccc(F)c4)[nH]n3)ncnc2c1 [AZD2811] (first compound max 1 µM, 7x7, partner max 1 µM) | 0.783 | 0.748 | 0.499 | 0.762 | 0.563 | 0.589 | 0.308 | 0.745 | 0.444 | 0.381 | 0.351 | 0.74 | 0.382 | 0.701 | 0.648 | 0.888 | 0.897 | 0.298 | 0.568 | 0.944
10 | CC1(C)CCC(CN2CCN(c3ccc(C(=O)NS(=O)(=O)c4ccc(NCC5CCOCC5)c([N+](=O)[O-])c4)c(Oc4cnc5[nH]ccc5c4)c3)CC2)=C(c2ccc(Cl)cc2)C1 [Venetoclax] + CN(C)CCCOc1ccc(-c2ccc3ncc4c(c3c2)n(C2CCOCC2)c(=O)n4C)cn1 [AZD0156] (first compound max 1 µM, 7x7, partner max 1 µM) | 0.491 | 0.395 | 0.194 | 0.487 | 0.245 | 0.736 | 0.17 | 0.161 | 0.178 | 0.25 | 0.149 | 0.278 | 0.167 | 0.161 | 0.142 | 0.491 | 0.812 | 0.146 | 0.289 | 0.0995
11 | Cc1c2c(nn1C)CSCc1cc(n(C)n1)CSc1cc(c3ccccc3c1)OCCCc1c(C(=O)O)n(C)c3c-2c(Cl)ccc13 [AZD5991] + C=CCn1c(=O)c2cnc(Nc3ccc(N4CCN(C)CC4)cc3)nc2n1-c1cccc(C(C)(C)O)n1 [AZD1775] (first compound max 1 µM, partner max 1 µM) | 0.858 | 0.971 | 0.813 | 0.87 | 0.988 | 0.769 | 0.19 | 0.972 | 0.904 | 0.471 | 0.481 | 1 | 0.763 | 0.97 | 0.967 | 1 | 0.986 | 0.478 | 0.556 | 0.977
12 | CN(CCO)CC[C@H](CSc1ccccc1)Nc1ccc(S(=O)(=O)NC(=O)c2ccc(N3CCC([C@@H](O)c4ccccc4-c4ccc(Cl)cc4)CC3)cc2)cc1S(=O)(=O)C(F)(F)F [AZD4320] + CN(C)CCCOc1ccc(-c2ccc3ncc4c(c3c2)n(C2CCOCC2)c(=O)n4C)cn1 [AZD0156] (first compound max 1 µM, 7x7, partner max 1 µM) | 0.383 | 0.439 | 0.0674 | 0.491 | 0.856 | 0.253 | 0.119 | 0.478 | 0.173 | 0.286 | 0.321 | 0.303 | 0.171 | 0.541 | 0.333 | 0.85 | 0.459 | 0.175 | 0.239 | 0.871
